Experimental data: patent US20220202754A1, “USES OF PANTOTHENIC ACID IN PREPARATION OF A COMPOSITION FOR TREATING AND/OR PREVENTING TUMORS” (REVAISSANT (SHENZHEN) BIOSCIENCES CO., LTD., priority 2019, published 2022)

Assays:
[1] = test system: CD8+ T lymphocytes in the liver tumor microenvironment; test: Relative amount of CD8+ T lymphocytes in the tumor microenvironment by flow cytometry; assay type: in vivo, C57BL/6 mice; conditions: for increase of relative amount of CD8+ T lymphocytes in the liver tumor microenvironment: one typical mouse per group, FIG. 6
From the text: Experimental animals: Twenty-seven C57BL/6 mice aged 3 to 4 weeks old in good mental state were purchased from the Experimental Animal Center of Sun Yat-sen University. The mice were randomly divided into 3 groups, nine mice for each group, and the 3 groups were a control group (the first group), a pantothenic acid group (the second group) and a Vitamin E control group (the third group) respectively. The 3 groups of mice were continually administered by gavage with pure water, pantothenic acid (at a concentration of 0.02 g/ml, purchased from the Sigma official website) and Vitamin E (at a concentration of 0.02 g/ml, purchased from the Sigma official website) for 3 to 4 weeks, respectively. After the mouse tumor (liver cancer) cells HEPA1-6 grew at logarithmic phase, they were digested with trypsin, and culture medium was neutralized. After centrifugation, the cells were collected, washed twice with DPBS to remove residual serum. Finally, the cells were redissolved with DPBS. After cell counting was completed, each mouse was subcutaneously inoculated with 10^6 cells into right axilla and continually treated by gavage, respectively, and the tumor-bearing mice were killed after 2 to 3 weeks. After dissection, the sizes of the subcutaneously transplanted tumors were measured, and the tumor cells were collected in situ. A relative amount of the CD8^+ T lymphocytes in the tumor microenvironment was detected and analyzed by flow cytometry.

[2] = test system: liver cancer cells (HEPA1-6) transplanted tumors; test: Pantothenic acid for tumor prevention and treatment in mice: size of subcutaneously transplanted tumors; assay type: in vivo, C57BL/6 mice; conditions: gavage 0.02 g/ml; HEPA1-6 subcutaneous tumor; p<0.01; FIG. 4 and FIG. 5
From the text: FIG. 3 is a schematic diagram of the experimental procedure for detecting pantothenic acid, the metabolite of the intestinal bacteria to enhance an accumulation of CD8^+ cytotoxic T cells in the tumor microenvironment and to treat tumors in a mouse model of liver cancer. That is, an experimental procedure of administering pantothenic acid to mice subcutaneously transplanted with liver cancer cells (HEPA1-6). The time is expressed in days (Day, d) for administering pantothenic acid or for transplanting tumor cells.
Experimental animals: Twenty-seven C57BL/6 mice aged 3 to 4 weeks old in good mental state were purchased from the Experimental Animal Center of Sun Yat-sen University. The mice were randomly divided into 3 groups, nine mice for each group, and the 3 groups were a control group (the first group), a pantothenic acid group (the second group) and a Vitamin E control group (the third group) respectively. […] After dissection, the sizes of the subcutaneously transplanted tumors were measured, and the tumor cells were collected in situ. A relative amount of the CD8^+ T lymphocytes in the tumor microenvironment was detected and analyzed by flow cytometry.

CC(C)(CO)[C@@H](O)C(=O)NCCC(=O)O [pantothenic acid]
relative amount of CD8+ T lymphocytes in the tumor microenvironment (percentage of total cells) ([1]; compared with pure water control group and Vitamin E control group, statistical analysis, p<0.05, FIG. 7): significantly increases | increase of relative amount of CD8+ T lymphocytes in the liver tumor microenvironment ([1]; compared with the Vitamin E control group): more than 3 times | increase of relative amount of CD8+ T lymphocytes in the liver tumor microenvironment ([1]; compared with the pure water control group): more than 7 times | reduction of size of liver cancer cell transplanted tumors [2]: about 80%
